PMC11509018, “Evaluation of the Role of Tanshinone I in an In Vitro System of Charcot-Marie-Tooth Disease Type 2N” (International Journal of Molecular Sciences, 2024)

Molecular target: T1, AlaRS E337K binding to Nrp1 (Homo sapiens, UniProt P49588, E337K)
T1 construct: expressed in transfected cells
T1 sequence (P49588 1-968 E337K): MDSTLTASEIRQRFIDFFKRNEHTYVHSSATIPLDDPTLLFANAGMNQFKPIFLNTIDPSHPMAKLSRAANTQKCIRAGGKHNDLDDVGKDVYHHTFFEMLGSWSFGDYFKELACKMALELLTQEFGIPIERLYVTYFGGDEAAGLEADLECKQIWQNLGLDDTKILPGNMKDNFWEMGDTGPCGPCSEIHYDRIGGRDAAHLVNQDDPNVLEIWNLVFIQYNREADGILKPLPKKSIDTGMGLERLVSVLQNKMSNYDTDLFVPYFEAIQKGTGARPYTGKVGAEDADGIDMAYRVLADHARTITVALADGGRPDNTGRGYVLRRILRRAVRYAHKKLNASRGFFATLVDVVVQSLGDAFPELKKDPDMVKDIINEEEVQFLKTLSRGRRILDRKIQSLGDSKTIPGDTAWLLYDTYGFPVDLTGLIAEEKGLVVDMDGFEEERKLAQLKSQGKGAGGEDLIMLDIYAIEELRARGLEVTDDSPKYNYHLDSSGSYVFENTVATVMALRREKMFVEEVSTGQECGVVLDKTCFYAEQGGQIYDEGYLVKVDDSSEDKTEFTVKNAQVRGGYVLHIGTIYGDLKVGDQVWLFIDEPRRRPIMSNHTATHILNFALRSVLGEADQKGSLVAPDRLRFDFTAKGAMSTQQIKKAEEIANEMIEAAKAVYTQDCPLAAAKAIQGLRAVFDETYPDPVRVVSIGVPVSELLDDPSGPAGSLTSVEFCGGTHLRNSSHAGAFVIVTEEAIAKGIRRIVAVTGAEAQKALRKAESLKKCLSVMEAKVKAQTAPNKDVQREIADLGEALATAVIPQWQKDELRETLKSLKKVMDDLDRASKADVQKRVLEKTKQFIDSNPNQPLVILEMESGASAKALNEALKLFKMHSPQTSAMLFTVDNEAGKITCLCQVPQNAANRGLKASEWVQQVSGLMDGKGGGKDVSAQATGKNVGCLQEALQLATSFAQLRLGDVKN
Assay: Co-IP of HA-AlaRS mutant with Nrp1 in transfected cells
Format: cell-based
Settings: 20 µM Tanshinone I for 24 h, ImageJ, average of three repeats
Procedure: To further investigate whether Tanshinone I-induced conformational changes in AlaRS CMT mutants affect their interaction with Nrp1, Co-IP experiments were performed in cells treated with Tanshinone I. By comparing Co-IP results obtained before and after treatment, we assessed the influence of the drug on the binding strength and mode between the AlaRS CMT mutants and Nrp1. […] To confirm the direct effect of Tanshinone I on the interaction between AlaRS CMT mutants and Nrp1, pull-down experiments were performed. […] Given that the interaction between AlaRS mutants and Nrp1 is associated with disease progression in CMT, the ability of Tanshinone I to disrupt this binding highlights its potential to intervene in the pathogenic mechanisms of these diseases.
Figure 7 The impact of Tanshinone I on the interaction between AlaRS mutants and Nrp1. (A) Co-IP assays were conducted to assess the binding between HA-AlaRS mutants and Nrp1, both with and without treatment with 20 µM Tanshinone I for 24 h. […] (C) Pull down assay was performed to detect the binding between AlaRS mutants and GST-Nrp1 b1 with or without 20 µM Tanshinone I. (D) Relative quantification statistics of the AlaRS mutants pulled down from the GST pull down experiments after Tanshinone I treatment were performed using ImageJ. (E) The cell viability of 293T and NSC34 cells treated with different concentrations of Tanshinone I was assessed using the CCK-8 assay over a 24 h period. TEXT PRINTED IN THE PICTURE: (B) Tanshinone I: Mean density band (N71Y): 0.60; Mean density band (G102R): 0.53; Mean density band (R326W): 0.50; Mean density band (R329H): 0.50; Mean density band (E337K): 0.62 | (D) Tanshinone I: Mean density band (N71Y): 0.82; Mean density band (G102R): 0.76; Mean density band (R326W): 0.84; Mean density band (R329H): 0.84; Mean density band (E337K): 0.90
Total protein was extracted from cells using RIPA buffer (50 mM Tris-HCl pH 7.4, 150 mM NaCl, 1% NP40, 1 mM EDTA) supplemented with a protease and phosphatase inhibitor cocktail (Roche, Basel, Switzerland). After SDS-PAGE, the protein on the gel was transferred to a PVDF membrane (Bio-Rad, Hercules, CA, USA) and then blocked with 5% non-fat dry milk in TBST for 1 h. Then, the membranes were incubated with the indicated primary antibodies and corresponding HRP-conjugated secondary antibodies. Signals were detected using the Bio-Rad ChemiDoc system (Bio-Rad, Shanghai, China). The following antibodies were used: Flag (Ray antibody biotech, Beijing, China, 1:3000), HA (Ray antibody biotech, Beijing, China, 1:3000), and GAPDH (Ray antibody biotech, Beijing, China, 1:5000).
To detect the binding of Nrp1 and AlaRS mutants in cells, whole-cell lysates (500 μg) were treated overnight with 2 μg of anti-Flag antibody in RIPA buffer. Next, Protein A/G agarose beads (#sc-2003, Santa Cruz Biotechnology, Santa Cruz, CA, USA) were applied to the lysates and the samples were further treated for 8–12 h with rotation. Samples were washed three times with RIPA buffer. Subsequently, the immunoprecipitations were resuspended into 2 × SDS-loading buffer. The samples were then boiled for 10 min and detected using Western blot. The experiment was repeated three times.

## Cc1coc2c1C(=O)C(=O)c1c-2ccc2c(C)cccc12 [Tanshinone I]
  Mean density band (E337K), relative quantification of AlaRS mutant immunoprecipitated: 0.62
